Assay results reported in patent publication US20230107926A1, “A METHOD FOR TREATING A BIOLOGICAL OBJECT” (OPTICEPT TECHNOLOGIES AB, priority 2020, published 2023).

Tests used:
[1] = system: Cuttings of Pelargonium interspecific: Calliope M Dark Red; test: Comparative trial of vacuum impregnation (VI) on unrooted Pelargonium cuttings: storage, rooting, losses, acceptability; format: in vivo; details: for % Losses after storage: stored at 8° C, losses before sticking; for % Losses / % Rooted / %Not rooted / % Acceptable YPL: 21 days after sticking; for % Acceptable YPL: YPL = young plant
Description: Comparative trials were made to investigate the effect of a method according to the present invention, that is a method preferably involving vacuum impregnation and which definitely is free from any PEF step, and a method involving a PEF step, either alone or together with an impregnation step, and of course also compared with untreated control(s). Cuttings of Pelargonium interspecific: Calliope M Dark Red was used as the testing material. When testing the method according to the second aspect of the present invention, the following vacuum impregnation parameters (protocol) were used: A pressure falling time of 10 minutes, a holding time of the obtained low pressure of 1 minute and then 15 minutes rising time when the pressure was increased again to atmospheric pressure. The minimum pressure was set at 220 mbar and trehalose 10% was used as the impregnation solution. For the PEF trial and step (not according to the present invention), the parameters used were the following: 500 V in continuous system, 250 µs pulse width and 50 PPV (pulses per volume), 0.3 KW. For the group of cuttings that was subjected only to vacuum impregnation, that is by a method according to the present invention, an additional rinsing step was also performed. Moreover, each group tested consisted of 80 unrooted cuttings, and not any repetitions were performed. When the pelargonium cuttings were received they were processed immediately. After the treatment, the groups were placed in perforated trays and kept inside slightly opened boxes. The boxes were stored 7 days at 8° C. After 7 days of storage the cuttings were evaluated and counted. The damaged (due to Botrytis), rotten or withered ones are removed. These are called losses before sticking. The rooting, losses and acceptability results were obtained 21 days after sticking. […] It should be noted that data for losses after storage were obtained after […] of storage.

Roses (variety: Athena) = test: Vacuum impregnation on roses, appearance during vase storage at room temperature; format: in vivo; details: fructose 2-15 wt%, VI without PEF, versus untreated control
Description: Roses (variety: Athena) were purchased form a local distributor. The roses were transported from Kenya. The roses arrived at the test site 4 days after harvest.
The treatment according to the present invention was applied to the roses immediately after the arrival. The roses were placed vertically in an impregnation solution, making sure that the flower bud was not immersed in the impregnation solution, thus only the stem and leaves were immersed. The impregnation solution contained sugar (fructose at a concentration of 2-15 wt%). Vacuum was applied reaching a minimum pressure range of 60 - 300 mbar, and with a total treatment time of about 12 minutes.
To continue with the trial performed, after that the vacuum impregnation treatment was finished, the roses were taken out from the impregnation solution. They were then immersed in water, again excluding the flower buds, to wash the sugars from the surface and then placed in a cold room for 24 hours to recover. They were in this case not dried in any way.
After 24 hours the roses were moved to room temperature in order to evaluate the results at the end user conditions. They were stored in a vase, with only the lower part of the stems immersed in water, and the water was renewed every two days.
Roses were stored at room temperature for 13 days after the treatment (Right: roses treated according to the present invention, left: control roses, i.e. not treated).

| SMILES | % Losses after storage ([1]; No PEF, only VI (220 mbar)) [%] | % Losses ([1]; No PEF, only VI) [%] | % Rooted ([1]; No PEF, only VI) [%] | %Not rooted ([1]; No PEF, only VI) [%] | % Acceptable YPL ([1]; No PEF, only VI) [%] | % Losses after storage ([1]; VI + PEF (500 V, 250 µs, 50 PPV)) [%] | % Losses ([1]; VI + PEF) [%] | % Rooted ([1]; VI + PEF) [%] | %Not rooted ([1]; VI + PEF) [%] | % Acceptable YPL ([1]; VI + PEF) [%] | general appearance of roses (Roses (variety: Athena); stem and leaves immersed, 13 days at room temperature) | browning and wilting of the flower buds (Roses (variety: Athena); room temperature storage) | freshness of the treated leaves (Roses (variety: Athena); room temperature storage) |
| --- | --- | --- | --- | --- | --- | --- | --- | --- | --- | --- | --- | --- | --- |
| OC[C@H]1O[C@H](O[C@H]2O[C@H](CO)[C@@H](O)[C@H](O)[C@H]2O)[C@H](O)[C@@H](O)[C@@H]1O [Trehalose 10%, trehalose] | 4 | 0 | 88 | 8 | 46 | 0 | 10 | 75 | 15 | 35 | – | – | – |
| O=C(CO)[C@@H](O)[C@H](O)[C@H](O)CO [sugar, fructose] | – | – | – | – | – | – | – | – | – | – | clear improvement | delayed | preserve freshness better |
